Where two headings read alike, the source gives them in different places.
Tests used:
[1] = system: human cervical carcinoma (HeLa); test: MTT assay, in vitro cell viability, HeLa; type: cell-based; settings: ± standard deviation
Description: (§1) To study the ability of the prepared ligands and the synthesized complexes in retarding the growth of cancer cell, the MTT assay was performed with human cervical carcinoma (HeLa), human colon carcinoma (HT-29), and non-cancerous L929 (fibroblast) cell lines. As a reference, cisplatin is also examined with all the cell lines for an incubation period of 24 h and as stated in Table 1.
(§2) 2. Experimental Procedures […]
(§3) The cell lines HeLa, HT-29, and L929 were collected from ATCC and the stock cells were cultured in DMEM/ F12 enriched with 10% inactivated Fetal Bovine Serum (FBS), penicillin (100 IU/ml), streptomycin (100 µg/ml) in a humidified atmosphere of 5% carbon dioxide at 37 °C until confluent. The cells were dissociated with cell dissociating solution (0.2 % trypsin, 0.02 % EDTA, 0.05 % glucose in PBS). The viability of the cells have been checked and centrifuged. Further, 50,000 cells /well of […] was seeded in a 96 well plate and incubated for 24 hours at 37 °C, 5 % carbon dioxide incubator.
(§4) The monolayer cell culture has been trypsinized and the cell count was altered to […] using respective media comprising 10% FBS. 100 µL of the diluted cell suspension (50,000 cells/well) was added to each well of the 96 well microtiter plate. When a partial monolayer formed after 24 hours, the supernatant was swiped off and the monolayer has been washed with the medium. 100 µL of various concentrations of complexes have been added on to the partial monolayer in microtiter plates. Then, the […]
(§5) incubation, the test solutions in the wells have been discarded and 100 µL of MTT (5 mg/10 ml of MTT in PBS) was added to each well. The plates have been incubated for four hours at 37 °C in 5% carbon dioxide atmosphere. The supernatant has been removed and 100 µL of DMSO was applied to dissolve the formed formazan. The absorbance was recorded using a microplate reader at 590 nm. The % growth inhibition has been determined using the […]
(§6) Cell viability (%) = (Absorbance of each well/ Absorbance of control well) × 100 […]
(§7) Hoechst 33342 staining method
(§8) 5 × 10^5 HeLa cells have been incubated with IC50 concentration of the complex 4 for 24 hours in a 6-well culture plate and have been fixed with 4% paraformaldehyde followed by permeabilization with 0.1% Triton X-100. Cells were then stained with 50 μg /mL Hoechst 33342 for 30 min at ambient temperature. The cells undergoing apoptosis were observed and visualized by epifluorescence microscope (Carl Zeiss, Germany).

[2] = system: human colon carcinoma (HT-29); test: MTT assay, in vitro cell viability, HT-29; type: cell-based; settings: ± standard deviation
Description: as §1, §2, §3, §4, §5, §6, §7, §8

[3] = system: non-cancerous L929 (fibroblast) cell lines; test: MTT assay, in vitro cell viability, L929; type: cell-based; settings: ± standard deviation
Description: as §1, §2, §3, §4, §5, §6, §7, §8

[4] = Partition coefficient (log P), shake-flask, n-octanol-water; type: physicochemical
From the text: The permeability of the drug molecules into a lipid cytomembrane is a prime initiative for designing drugs and its development. The main properties like absorption, transportation, and expulsion of the drugs take control over the chief pharmacokinetic properties. Accordingly, we resolve the permeability of all the complexes with the help of calculated log P values using a n-octanol–water system. Based on the solubility of the complexes in aqueous and organic phases, the log P values are determined.[22]−[24] […] Complexes 3 and 4 display higher permeability characters (log P value) due to the presence of halogen and electron-donating group, respectively. Additionally, the presence of the carbazole moiety in the complexes enhanced the lipophilicity.[25],[26]
2. Experimental Procedures
UV-visible time dependent spectral method has been used to examine the stability of the complexes. Complexes were dissolved in a minimum amount of 1% DMSO and then diluted with PBS buffer to 1×10−3 M concentration. The hydrolysis profiles of the complexes were monitored by their electronic spectra over 72 h.
Partition coefficients determination
The "shake-flask" technique was used to evaluate the lipophilicity of complexes 2 - 4 using octanol/water phase partitions. Double distilled water and analytical grade octanol (Sigma Aldrich) were used to produce octanol-saturated water and water-saturated octanol phases. Complexes 2−4 (1 mg/mL; ethanol/water) have been diluted to 2, 4, 6, 8, and 10 μg/mL in water and alternatively were diluted to 2, 4, 6, 8, and 10 μg/mL in octanol, respectively. Equal volumes (50/50) of the complexes in the proper concentrations […] have been shaken for 24 hours at ambient temperature. The organic and aqueous fractions have been separated and centrifuged when equilibrium was attained. Finally, UV-visible spectroscopy was used to determine the complex concentration in each phase. The concentration of the sample solution was used to calculate the partition coefficients (log P) by using the equation log P = log[(1−3)oct/(1−3)aq]. 4 […]

HeLa cancer cells [5] = test: ROS detection (DCFH-DA); type: cell-based, human; settings: IC50 concentration, 24 h, control 20 %
From the text: ROS, like hydrogen peroxide, superoxide anion, and hydroxyl radical, are produced on mitochondrial oxidative metabolism along with cell’s reaction toward cytokines and bacterial invasion. At low levels of ROS, it could participate in cell signaling. Whereas, at higher levels they might damage (DNA and RNA) and engage in apoptosis via mitochondrial dysfunction.[32] The quantity of ROS is detected with the help of oxidant fluorescent dye. The nonpolar dye DCFH-DA turned out to be deacetylated and transformed into DCFH (polar) by intracellular esterases. However, DCFH is not identified using a microscope. […]
(§9) To quantify the intracellular ROS, 5 × 10^5 HeLa cells have been seeded on a 6-well plate comprising cover slip and incubated overnight for attachment. […]
(§10) Culture cells on cover slips in 6‐well cell culture plates at a density around 5 x 10^5 cells/mL overnight in an incubator (5% carbon dioxide, 37 °C). […] The cells were immediately examined under a fluorescent microscope (Olympus, CKX-53, Japan), and the proportion of dead cells was calculated in at least three randomly chosen microscopic fields. […]
(§11) HeLa ells have been seeded in a 6-well plate (10^5 cells/well)) and cultured at 37 °C for 24 hours. […] Finally, apoptosis induction has been assessed using a flow cytometer (SYSMEX, Japan), and the data have been analyzed by Flow Jo software. […]

HeLa cancer cells [6] = test: Mitochondrial membrane potential, JC-1 staining; type: cell-based, human; settings: IC50 concentration, 24 h
Description: The mitochondrial dysfunction-mediated apoptosis was assayed via ROS generation. After the mitochondrial impairment, the mitochondrial membrane potential (MMP) is reduced and the same was examined using JC-1 fluorescence dye. The dye is used to assay the MMP to determine mitochondrial viability. Proapoptotic factors and other apoptotic inducing features were produced by mitochondria, which serves to be a significant role for apoptosis. […] In the control group (Figure 7A), JC-1 accumulates and produces a red fluorescence correlating to a high MMP.
(§12) Reactive Oxygen Species (ROS) Assay
as §9, §10, §11

caspase-8 = test: Caspase activity assay, caspase-8 in HeLa cells; type: cell-based, human; settings: IC50 concentration, 12 and 24 h
From the text: (§13) The apoptotic mode of cancer cell death was further substantiated by caspase activation by ELISA analysis. In eukaryotes, caspases(protease enzymes) play a significant role in induction, transduction, and amplification of intracellular apoptotic signals. Based on the amino acid composition, caspases are divided into three sub-families, namely, […], executioner, and mediator caspases.[37] Most importantly, the initiator and executioner caspases get involved in the apoptotic signaling cascade. Caspase-8 and -9 are the initiators of the extrinsic and intrinsic pathways of apoptosis, respectively. Both mechanisms converge in the activation of the executioner caspase-3.[38]
as §12, §9, §10
(§14) The caspase activity assay was determined by a chromogenic assay using caspase-3 (Calbiochem, Merck), caspase-8 and 9 (Chemicon International Inc.) colorimeter activity assay kits. […]

caspase-3 = test: Caspase activity assay, caspase-3 in HeLa cells; type: cell-based, human; settings: IC50 concentration, 12 and 24 h
From the text: as §13, §12, §9, §10, §14

caspase-9 = test: Caspase activity assay, caspase-9 in HeLa cells; type: cell-based, human; settings: IC50 concentration, 12 and 24 h
From the text: as §13, §12, §9, §10, §14

[7] = Homo sapiens, HeLa, 24 h incubation, read-out: IC50 HeLa 24 h
[8] = Homo sapiens, HeLa, 48 h incubation, read-out: IC50 HeLa 48 h
[9] = Homo sapiens, HT-29, 24 h incubation, read-out: IC50 HT-29 24 h
[10] = Homo sapiens, HT-29, 48 h incubation, read-out: IC50 HT-29 48 h
[11] = Mus musculus, L929, 24 h incubation, read-out: IC50 L929 24 h
[12] = Mus musculus, L929, 48 h incubation, read-out: IC50 L929 48 h
[13] = 24 h incubation, read-out: IC50 HeLa 24 h
[14] = 48 h incubation, read-out: IC50 HeLa 48 h
[15] = 24 h incubation, read-out: IC50 HT-29 24 h
[16] = 48 h incubation, read-out: IC50 HT-29 48 h
[17] = 24 h incubation, read-out: IC50 L929 24 h
[18] = 48 h incubation, read-out: IC50 L929 48 h
[19] = n-octanol-water system, shake-flask, UV-visible

Row | IC50 [1, 7] [µM] | IC50 [1, 8] [µM] | IC50 [2, 9] [µM] | IC50 [2, 10] [µM] | log P [4] | Compound | IC50 [3, 11] [µM] | IC50 [3, 12] [µM] | IC50 [1, 13] [µM] | IC50 [1, 14] [µM] | IC50 [2, 15] [µM] | IC50 [2, 16] [µM] | IC50 [3, 17] [µM] | IC50 [3, 18] [µM] | log P [4, 19] | % of fluorescence intensity, reactive oxygen species (DCFH-DA) (HeLa cancer cells [5]) [%] | Mitochondrial membrane potential (JC-1 fluorescence) (HeLa cancer cells [6]) | Expression of caspase-8 (caspase-8) | Caspase-3 activity versus control cells (caspase-3) | Caspase-9 activity versus control cells (caspase-9)
1 | > 100 | > 100 | > 100 | > 100 | – | O=C(N/N=C1/CCCc2c1[nH]c1ccccc21)c1ccccc1 [L1] | > 100 | > 100 | – | – | – | – | – | – | – | – | – | – | – | –
2 | > 100 | 86.2 ± 1.12 | > 100 | 94 ± 1.27 | – | O=C(N/N=C1/CCCc2c1[nH]c1ccccc21)c1ccc(Cl)cc1 [L2] | > 100 | > 100 | – | – | – | – | – | – | – | – | – | – | – | –
3 | > 100 | 73.4 ± 0.82 | > 100 | 81.7 ± 1.09 | – | COc1ccc(C(=O)N/N=C2/CCCc3c2[nH]c2ccccc32)cc1 [L3] | > 100 | > 100 | – | – | – | – | – | – | – | – | – | – | – | –
4 | – | – | – | – | – | N.N.[Cl][Pt][Cl] [cisplatin, reference compound] | – | – | 28.04 ± 0.18 | 12.4 ± 1.81 | 34.3 ± 1.45 | 14.3 ± 1.57 | 146.5 ± 0.79 | 141.2 ± 0.37 | – | – | – | – | – | –
5 | – | – | – | – | – | c1ccc(C(=NN=C2CCCc3c2[nH]c2ccccc32)[O][Ni][O]C(=NN=C2CCCc3c2[nH]c2ccccc32)c2ccccc2)cc1 [complex 2, [Ni(L1)2]] | – | – | 49.3 ± 1.05 | 40.12 ± 0.09 | 68.59 ± 0.27 | 61.25 ± 0.47 | 248.1 ± 1.12 | 236.3 ± 1.45 | 0.86 ± 0.14 | – | – | – | – | –
6 | – | – | – | – | 1.57 ± 0.12 | Clc1ccc(C(=NN=C2CCCc3c2[nH]c2ccccc32)[O][Ni][O]C(=NN=C2CCCc3c2[nH]c2ccccc32)c2ccc(Cl)cc2)cc1 [complex 3, [Ni(L2)2]] | – | – | 45.4 ± 0.72 | 32.8 ± 1.19 | 59.2 ± 0.64 | 50.8 ± 1.11 | 253.1 ± 0.61 | 247.4 ± 0.28 | – | – | – | – | – | –
7 | – | – | – | – | – | COc1ccc(C(=NN=C2CCCc3c2[nH]c2ccccc32)[O][Ni][O]C(=NN=C2CCCc3c2[nH]c2ccccc32)c2ccc(OC)cc2)cc1 [complex 4, [Ni(L3)2]] | – | – | 43.39 ± 0.21 | 28.2 ± 0.32 | 57.42 ± 0.09 | 41.2 ± 1.28 | 275.8 ± 0.35 | 269.1 ± 1.1 | 1.95 ± 0.05 | 80 | decrease in MMP | efficiently upregulated | time-dependent increase | time-dependent increase
